Broadly, the IC50 is the midpoint of a concentration-inhibition curve.

SMILES strings stand for the structures. A value given as a limit tells only on which side of the number the result lay.

T1 sequence (P00746 26-253): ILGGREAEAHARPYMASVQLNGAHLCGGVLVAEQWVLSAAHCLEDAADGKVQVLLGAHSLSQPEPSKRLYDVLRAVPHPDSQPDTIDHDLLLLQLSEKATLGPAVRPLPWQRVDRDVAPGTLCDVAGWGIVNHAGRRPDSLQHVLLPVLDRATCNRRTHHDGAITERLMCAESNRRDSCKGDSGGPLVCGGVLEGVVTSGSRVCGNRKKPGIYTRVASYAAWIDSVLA

One assay concerns the target T1, Human Factor D (Homo sapiens, UniProt P00746).
T1 construct: purified from human serum; purchased Complement Technology, Inc; host or cells: human serum
Put plainly: Human Factor D assay (Example 8). It counts as biochemical.
Conditions: not given
The method, then:
Human Factor D (purified from human serum, Complement Technology, Inc.) at 80 nM final concentration was incubated with test compound at various concentrations for 5 minutes at room temperature in 50 mM Tris, 1M NaCl, pH 7.5. A synthetic substrate Z-L-Lys-SBzl and DTNB (Ellman's reagent) are added to final concentrations of 100 μM each. […] IC50 values are calculated by nonlinear regression of complement Factor D reaction rates as a function of test compound concentration.
Turning to `CC(=O)c1cn(CC(=O)N2C[C@H](F)C[C@H]2C(=O)Nc2cccc(SC(F)(F)F)c2)c2cc(O)ccc12` [Compound 48, (2S,4R)-1-(2-(3-acetyl-6-hydroxy-1H-indol-1-yl)acetyl)-4-fluoro-N-(3-(trifluoromethylthio)phenyl)pyrrolidine-2-carboxamide], the half-maximal inhibitory concentration (IC50) is under 1000 nM.

Molecule `CC(=O)c1cn(CC(=O)N2C[C@H](F)C[C@H]2C(=O)NCc2cc(P(=O)(O)O)cc(Cl)c2F)c2ccccc12` [Compound 63, 3-(((2S,4R)-1-(2-(3-acetyl-1H-indol-1-yl)acetyl)-4-fluoropyrrolidine-2-carboxamido)methyl)-5-chloro-4-fluorophenylphos-phonic acid] displayed a concentration for half-maximal inhibition (IC50) of under 1000 nM.

As to `CC(=O)c1cn(CC(=O)N2C[C@H](F)C[C@H]2C(=O)Nc2cccc(-c3ccccc3Cl)c2F)c2c(C#N)cccc12` [Compound 79, (2S,4R)-1-(2-(3-acetyl-7-cyano-1H-indol-1-yl)acetyl)-N-(2′-chloro-2-fluorobiphenyl-3-yl)-4-fluoropyrrolidine-2-carboxamide], the half-inhibitory concentration (IC50) was under 1000 nM. Turning to `NC(=O)c1nn(CC(=O)N2C[C@H](F)C[C@H]2C(=O)Nc2cccc(-c3cc(F)c(F)cc3Cl)c2F)c2ccccc12` [Compound 80, 1-(2-((2S,4R)-2-((2′-Chloro-2,4′,5′-trifluoro-[1,1′-biphenyl]-3-yl)carbamoyl)-4-fluoropyrrolidin-1-yl)-2-oxoethyl)-1H-indazole-3-carboxamide], the 50% inhibitory concentration (IC50) was under 1000 nM.

Molecule `CC(=O)c1cn(CC(=O)N2C[C@H](F)C[C@H]2C(=O)Nc2cccc(Br)n2)c2ccc(C3(N4C(=O)c5ccccc5C4=O)CC3)cc12` [Compound 81, (2S,4R)-1-(2-(3-acetyl-5-(1-(1,3-dioxoisoindolin-2-yl)cyclopropyl)-1H-indol-1-yl)acetyl)-N-(6-bromopyridin-2-yl)-4-fluoropyrrolidine-2-carboxamide] had an IC50 of under 1000 nM.

Staying with this assay, now noted: Table 1; Human Factor D 80 nM, substrate Z-L-Lys-SBzl; read-out: IC50.
Turning to `CC(C)(C)OC(=O)N[C@@H](Cc1c[nH]c2ccccc12)C(=O)N1C[C@H](F)C[C@H]1C(=O)NCc1cccc(Cl)c1F` [Compound 38, tert-butyl (S)-1-((2S,4R)-2-(3-chloro-2-fluorobenzylcarbamoyl)-4-fluoropyrrolidin-1-yl)-3-(1H-indol-3-yl)-1-oxopropan-2-ylcarbamate], the concentration for half-maximal inhibition (IC50) was over 10000 nM. The same measure, in the same setting: as for `N[C@@H](Cc1c[nH]c2ccccc12)C(=O)N1C[C@H](F)C[C@H]1C(=O)NCc1cccc(Cl)c1F` [Compound 39, (2S,4R)-1-((S)-2-amino-3-(1H-indol-3-yl)propanoyl)-N-(3-chloro-2-fluorobenzyl)-4-fluoropyrrolidine-2-carboxamide], the figure is over 10000 nM.

For the molecule `CC(=O)c1nn(CC(=O)N2C[C@H](F)C[C@H]2C(=O)Nc2cccc(SC(F)(F)F)c2)c2cnccc12` [Compound 45, (2S,4R)-1-(2-(3-acetyl-1H-pyrazolo[3,4-c]pyridin-1-yl)acetyl)-4-fluoro-N-(3-(trifluoromethylthio)phenyl)pyrrolidine-2-carboxamide], the 50% inhibitory concentration (IC50) is under 1000 nM. Take `O=C(NCc1cccc(Cl)c1F)[C@@H]1C[C@@H](F)CN1C(=O)Cn1cc([N+](=O)[O-])c2ccccc21` [Compound 46, (2S,4R)-N-(3-chloro-2-fluorobenzyl)-4-fluoro-1-(2-(3-nitro-1H-indol-1-yl)acetyl)pyrrolidine-2-carboxamide]: the IC50 is under 1000 nM. The same measure, in the same setting: the value for `CC(=O)Nc1cn(CC(=O)N2C[C@H](F)C[C@H]2C(=O)NCc2cccc(Cl)c2F)c2ccccc12` [Compound 47, (2S,4R)-1-(2-(3-acetamido-1H-indol-1-yl)acetyl)-N-(3-chloro-2-fluorobenzyl)-4-fluoropyrrolidine-2-carboxamide] was under 1000 nM; that for `O=C(NCc1cccc(Cl)c1F)[C@@H]1C[C@@H](F)CN1C(=O)c1csc(-c2cccnc2)n1` [Compound 50, (2S,4R)-N-(3-chloro-2-fluorobenzyl)-4-fluoro-1-(2-(pyridin-3-yl)thiazole-4-carbonyl)pyrrolidine-2-carboxamide] was over 10000 nM; that for `CC(=O)Nc1ccc(C(=O)N2C[C@H](F)C[C@H]2C(=O)NCc2cccc(Cl)c2F)cn1` [Compound 51, (2S,4R)-1-(6-acetamidonicotinoyl)-N-(3-chloro-2-fluorobenzyl)-4-fluoropyrrolidine-2-carboxamide] was over 10000 nM. As for `O=C(NCc1cccc(Cl)c1F)[C@@H]1C[C@@H](F)CN1C(=O)Cn1nc(I)c2ccncc21` [Compound 52, (2S,4R)-N-(3-chloro-2-fluorobenzyl)-4-fluoro-1-(2-(3-iodo-1H-pyrazolo[3,4-c]pyridin-1-yl)acetyl)pyrrolidine-2-carboxamide], the IC50 was under 1000 nM.

Take `O=C(NCc1cccc(Cl)c1F)[C@@H]1C[C@@H](F)CN1C(=O)Nc1cn(C(=O)C2CC2)c2ccccc12` [Compound 54, (2S,4R)-N2-(3-chloro-2-fluorobenzyl)-N1-(1-(cyclopropanecarbonyl)-1H-indol-3-yl)-4-fluoropyrrolidine-1,2-dicarboxamide]: the 50% inhibitory concentration (IC50) was under 1000 nM.

With `CC(=O)c1cn(C(C)C(=O)N2C[C@H](F)C[C@H]2C(=O)NCc2cccc(Cl)c2F)c2ccccc12` (stereo partly shown) [Compound 55], the concentration for half-maximal inhibition (IC50) is over 10000 nM. On to `CC(=O)c1cn(C(C)(C)C(=O)N2C[C@H](F)C[C@H]2C(=O)NCc2cccc(Cl)c2F)c2ccccc12` [Compound 56], for which the half-maximal inhibitory concentration (IC50) is over 10000 nM. For the molecule `O=C(NCc1cccc(Cl)c1F)[C@@H]1C[C@@H](F)CN1C(=O)Cn1nc(P(=O)(O)O)c2ccncc21` [Compound 57], the IC50 is over 10000 nM. Still for that read-out and setting: as for `O=C(NCc1cccc(Cl)c1F)[C@@H]1C[C@@H](F)CN1C(=O)CN1C=NS(=O)(=O)c2ccccc21` [Compound 65, (2S,4R)-N-(3-chloro-2-fluorobenzyl)-1-(2-(1,1-dioxido-4H-benzo[e][1,2,4]thiadiazin-4-yl)acetyl)-4-fluoropyrrolidine-2-carboxamide], the figure is over 10000 nM; as for `CC(C)(C)OC(=O)N1CCc2c(n(CC(=O)N3C[C@H](F)C[C@H]3C(=O)NCc3cccc(Cl)c3F)c3ccccc23)C1` [Compound 67, tert-butyl 9-(2-((2S,4R)-2-(3-chloro-2-fluorobenzylcarbamoyl)-4-fluoropyrrolidin-1-yl)-2-oxoethyl)-3,4-dihydro-1H-pyrido[3,4-b]indole-2(9H)-carboxylate], over 10000 nM; as for `O=C(NCc1cccc(Cl)c1F)[C@@H]1C[C@@H](F)CN1C(=O)Cn1c2c(c3ccccc31)CCNC2` [Compound 68, (2S,4R)-N-(3-chloro-2-fluorobenzyl)-1-(2-(3,4-dihydro-1H-pyrido[3,4-b]indol-9(2H)-yl)acetyl)-4-fluoropyrrolidine-2-carboxamide], over 10000 nM. Turning to `CCOC(=O)CC(=O)N1CCc2c(n(CC(=O)N3C[C@H](F)C[C@H]3C(=O)NCc3cccc(Cl)c3F)c3ccccc23)C1` [Compound 70, ethyl 3-(9-(2-((2S,4R)-2-(3-chloro-2-fluorobenzylcarbamoyl)-4-fluoropyrrolidin-1-yl)-2-oxoethyl)-3,4-dihydro-1H-pyrido[3,4-b]indol-2(9H)-yl)-3-oxopropanoate], the IC50 is over 10000 nM. With `CC(=O)n1cc(C(=O)C(=O)N2C[C@H](F)C[C@H]2C(=O)NCc2cccc(Cl)c2F)c2ccccc21` [Compound 71, (2S,4R)-1-(2-(1-acetyl-1H-indol-3-yl)-2-oxoacetyl)-N-(3-chloro-2-fluorobenzyl)-4-fluoropyrrolidine-2-carboxamide], the half-maximal inhibitory concentration (IC50) was over 10000 nM. The same measure, in the same setting: the value for `O=C(O)CCC(=O)N1CCc2c(n(CC(=O)N3C[C@H](F)C[C@H]3C(=O)NCc3cccc(Cl)c3F)c3ccccc23)C1` [Compound 72, 4-(9-(2-((2S,4R)-2-(3-chloro-2-fluorobenzylcarbamoyl)-4-fluoropyrrolidin-1-yl)-2-oxoethyl)-3,4-dihydro-1H-pyrido[3,4-b]indol-2(9H)-yl)-4-oxobutanoic acid] was over 10000 nM; that for `O=C(NCc1cccc(Cl)c1F)[C@@H]1C[C@@H](F)CN1C(=O)Cn1nc(-c2cn[nH]c2)c2ccncc21` [Compound 73, (2S,4R)-1-(2-(3-(1H-pyrazol-4-yl)-1H-pyrazolo[3,4-c]pyridin-1-yl)acetyl)-N-(3-chloro-2-fluorobenzyl)-4-fluoropyrrolidine-2-carboxamide] was under 1000 nM; that for `C=C(F)c1nn(CC(=O)N2C[C@H](F)C[C@H]2C(=O)NCc2cccc(Cl)c2F)c2cnccc12` [Compound 74, (2S,4R)-N-(3-chloro-2-fluorobenzyl)-4-fluoro-1-(2-(3-(1-fluorovinyl)-1H-pyrazolo[3,4-c]pyridin-1-yl)acetyl)pyrrolidine-2-carboxamide] was under 1000 nM. Still for that read-out and setting: the value for `O=C(NCc1cccc(Cl)c1F)[C@@H]1C[C@@H](F)CN1C(=O)Cn1nc(-c2cnc[nH]2)c2ccncc21` [Compound 75, (2S,4R)-1-(2-(3-(1H-imidazol-5-yl)-1H-pyrazolo[3,4-c]pyridin-1-yl)acetyl)-N-(3-chloro-2-fluorobenzyl)-4-fluoropyrrolidine-2-carboxamide] was under 1000 nM; that for `NS(=O)(=O)c1cn(CC(=O)N2C[C@H](F)C[C@H]2C(=O)NCc2cccc(Cl)c2F)c2ccccc12` [Compound 76, (2S,4R)-N-(3-chloro-2-fluorobenzyl)-4-fluoro-1-(2-(3-sulfamoyl-1H-indol-1-yl)acetyl)pyrrolidine-2-carboxamide] was under 1000 nM; that for `NC(=O)c1nn(CC(=O)N2[C@@H]3C[C@@H]3C[C@H]2C(=O)Nc2cccc(-c3ccccc3Cl)c2F)cc1Br` [Compound 77, (1R,3S,5R)-2-(2-(4-Bromo-3-carbamoyl-1H-pyrazol-1-yl)acetyl)-N-(2′-chloro-2-fluoro-[1,1′-biphenyl]-3-yl)-2-azabicyclo[3.1.0]hexane-3-carboxamide] was under 1000 nM.

These data come from patent publication US10092584B2 (Achillion Pharmaceuticals, Inc., priority 2015, dated 2018).
